Legend:
avidin = avidin (Gallus gallus, UniProt P02701); settings: avidin-biotin interaction; cited from earlier work
[1] = cited from earlier work
[2] = test system: C6 GFP flank glioma tumors; settings: 2 mg/Kg paclitaxel administered systemically, flank model
[3] = test system: C6 GFP intracranial glioma tumors; settings: 2 mg/Kg paclitaxel administered systemically, intracranial model
[4] = in vivo; cited from earlier work

Chain of avidin (P02701 25-152): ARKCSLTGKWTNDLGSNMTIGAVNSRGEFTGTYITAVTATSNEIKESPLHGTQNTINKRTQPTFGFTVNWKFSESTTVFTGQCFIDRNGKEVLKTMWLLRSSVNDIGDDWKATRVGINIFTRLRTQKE

| gross deleterious effects (clinical monitoring and daily weights) [2] | gross deleterious effects (clinical monitoring and daily weights) [3] | Structure (SMILES) | dissociation half-life (avidin) | log P [1] | drug bound to plasma proteins [4] | terminal half-life (mean) [4] [h] | terminal half-life (range) [4] [h] |
| --- | --- | --- | --- | --- | --- | --- | --- |
|  |  | O=C(O)CCCC[C@@H]1SC[C@@H]2NC(=O)N[C@@H]21 [biotin] | about 89 days |  |  |  |  |
| no gross deleterious effects | no gross deleterious effects | CC(=O)O[C@H]1C(=O)[C@@]2(C)[C@H]([C@H](OC(=O)c3ccccc3)[C@]3(O)C[C@H](OC(=O)[C@H](O)[C@@H](NC(=O)c4ccccc4)c4ccccc4)C(C)=C1C3(C)C)[C@]1(OC(C)=O)CO[C@@H]1C[C@@H]2O [paclitaxel] |  | 3.96 | More than 90% | 5 | 1.3 to 8.6 |
